Laboratory results published in patent US20060199214A1, “Incorporation of modified nucleotides by archaeon DNA polymerases and related methods” (priority 1999, published 2006).

Legend:
[1] = tested on: Thermo Sequenase™ DNA polymerase; assay: Titration assay of chain terminator incorporation by Thermo Sequenase; assay type: biochemical; settings: FIG. 9
Method: Samples were then heated at 72° C. for 3 minutes and separated on a QuickPoint DNA sequencing gel (NOVEX, San Diego, Calif.) run at 1200 volts. The gel was fixed by soaking in 10% acetic acid/10% ethanol, dried, and polymerization products visualized by autoradiography.
In a related experiment dye-acyclo-CTP incorporation by the analogous […] variant was evaluated.
(§1) The 2X cocktail was split in half and 9° N™ (exo-)/A485L DNA polymerase or Thermo Sequenase™ was added to a final concentration of 0.04 U/μl. […] Reactions were thermal cycled as follows: • 94° C. 5 minutes • 25 cycles at: • 94° C. 30 seconds • 55° C. 30 seconds • 72° C. 30 seconds • 72° C. 7 minutes

[2] = biological target: human DNA polymerase alpha (Homo sapiens, UniProt P09884); settings: Reid, et al.; cited from earlier work
[3] = biological target: T1, 9° N™ (exo-)/A485L DNA polymerase (Thermococcus sp., UniProt Q56366, A485L/D141A/E143A); assay type: biochemical, Thermococcus sp. 9° N-7
T1 construct: made in house
T1 sequence (Q56366 whole entry D141A/E143A/A485L): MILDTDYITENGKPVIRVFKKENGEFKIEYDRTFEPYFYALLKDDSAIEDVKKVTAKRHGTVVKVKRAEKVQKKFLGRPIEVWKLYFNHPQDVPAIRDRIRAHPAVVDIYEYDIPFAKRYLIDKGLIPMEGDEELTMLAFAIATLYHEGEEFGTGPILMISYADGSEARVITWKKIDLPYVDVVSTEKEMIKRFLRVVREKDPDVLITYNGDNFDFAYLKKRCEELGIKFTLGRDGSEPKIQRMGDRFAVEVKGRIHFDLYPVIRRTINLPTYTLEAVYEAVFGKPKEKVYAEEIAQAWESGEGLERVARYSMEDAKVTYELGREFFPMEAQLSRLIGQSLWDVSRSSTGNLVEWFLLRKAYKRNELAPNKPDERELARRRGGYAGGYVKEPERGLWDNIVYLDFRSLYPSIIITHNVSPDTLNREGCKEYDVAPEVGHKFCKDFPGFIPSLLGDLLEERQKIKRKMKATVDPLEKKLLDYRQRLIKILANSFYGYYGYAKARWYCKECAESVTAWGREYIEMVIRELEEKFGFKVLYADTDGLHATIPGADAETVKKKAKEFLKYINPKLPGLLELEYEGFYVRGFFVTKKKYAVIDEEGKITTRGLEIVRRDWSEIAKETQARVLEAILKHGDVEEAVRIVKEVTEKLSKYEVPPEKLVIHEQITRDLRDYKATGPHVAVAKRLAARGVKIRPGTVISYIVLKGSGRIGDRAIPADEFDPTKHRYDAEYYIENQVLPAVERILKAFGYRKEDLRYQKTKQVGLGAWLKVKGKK
Method: as §1

[4] = biological target: herpes virus type 2 (HSV-2) DNA polymerase (Human herpesvirus 2, UniProt P89453); settings: Reid, et al.; cited from earlier work
herpes virus type 2 (HSV-2) DNA polymerase, sequence (P89453 whole entry): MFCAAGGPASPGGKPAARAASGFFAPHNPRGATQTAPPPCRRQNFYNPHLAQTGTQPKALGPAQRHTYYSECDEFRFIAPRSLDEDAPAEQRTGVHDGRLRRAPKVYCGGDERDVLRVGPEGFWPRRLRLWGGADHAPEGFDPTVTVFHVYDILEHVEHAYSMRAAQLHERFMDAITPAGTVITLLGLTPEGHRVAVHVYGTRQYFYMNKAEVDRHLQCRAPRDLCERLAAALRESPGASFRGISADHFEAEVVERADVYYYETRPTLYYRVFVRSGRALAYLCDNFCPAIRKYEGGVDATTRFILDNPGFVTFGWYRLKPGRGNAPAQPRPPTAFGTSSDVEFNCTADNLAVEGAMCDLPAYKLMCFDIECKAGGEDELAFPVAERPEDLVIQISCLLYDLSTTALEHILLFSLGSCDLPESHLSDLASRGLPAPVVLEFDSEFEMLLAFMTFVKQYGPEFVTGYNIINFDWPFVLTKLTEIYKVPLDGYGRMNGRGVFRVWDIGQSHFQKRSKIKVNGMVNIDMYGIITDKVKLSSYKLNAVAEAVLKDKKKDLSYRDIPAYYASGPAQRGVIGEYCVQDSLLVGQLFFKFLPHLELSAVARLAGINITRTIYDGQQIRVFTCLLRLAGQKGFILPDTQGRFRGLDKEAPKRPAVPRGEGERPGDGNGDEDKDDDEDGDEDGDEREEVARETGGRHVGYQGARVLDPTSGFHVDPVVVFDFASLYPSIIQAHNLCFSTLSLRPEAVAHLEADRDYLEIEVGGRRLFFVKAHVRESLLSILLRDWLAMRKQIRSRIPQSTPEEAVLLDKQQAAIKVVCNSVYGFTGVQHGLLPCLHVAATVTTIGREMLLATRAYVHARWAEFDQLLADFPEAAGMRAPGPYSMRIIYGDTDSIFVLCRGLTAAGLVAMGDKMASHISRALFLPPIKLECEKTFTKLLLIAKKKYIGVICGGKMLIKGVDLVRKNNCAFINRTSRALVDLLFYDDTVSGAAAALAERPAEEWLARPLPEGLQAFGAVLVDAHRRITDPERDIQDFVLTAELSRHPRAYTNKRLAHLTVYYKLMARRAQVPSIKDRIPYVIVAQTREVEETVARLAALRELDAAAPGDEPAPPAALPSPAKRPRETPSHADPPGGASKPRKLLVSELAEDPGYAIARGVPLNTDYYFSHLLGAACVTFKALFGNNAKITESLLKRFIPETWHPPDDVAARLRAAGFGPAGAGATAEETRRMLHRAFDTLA

[5] = biological target: human cytomegalovirus (HCMV) DNA polymerase (Human cytomegalovirus, UniProt P08546); settings: Reid, et al.; cited from earlier work
human cytomegalovirus (HCMV) DNA polymerase, sequence (P08546 whole entry): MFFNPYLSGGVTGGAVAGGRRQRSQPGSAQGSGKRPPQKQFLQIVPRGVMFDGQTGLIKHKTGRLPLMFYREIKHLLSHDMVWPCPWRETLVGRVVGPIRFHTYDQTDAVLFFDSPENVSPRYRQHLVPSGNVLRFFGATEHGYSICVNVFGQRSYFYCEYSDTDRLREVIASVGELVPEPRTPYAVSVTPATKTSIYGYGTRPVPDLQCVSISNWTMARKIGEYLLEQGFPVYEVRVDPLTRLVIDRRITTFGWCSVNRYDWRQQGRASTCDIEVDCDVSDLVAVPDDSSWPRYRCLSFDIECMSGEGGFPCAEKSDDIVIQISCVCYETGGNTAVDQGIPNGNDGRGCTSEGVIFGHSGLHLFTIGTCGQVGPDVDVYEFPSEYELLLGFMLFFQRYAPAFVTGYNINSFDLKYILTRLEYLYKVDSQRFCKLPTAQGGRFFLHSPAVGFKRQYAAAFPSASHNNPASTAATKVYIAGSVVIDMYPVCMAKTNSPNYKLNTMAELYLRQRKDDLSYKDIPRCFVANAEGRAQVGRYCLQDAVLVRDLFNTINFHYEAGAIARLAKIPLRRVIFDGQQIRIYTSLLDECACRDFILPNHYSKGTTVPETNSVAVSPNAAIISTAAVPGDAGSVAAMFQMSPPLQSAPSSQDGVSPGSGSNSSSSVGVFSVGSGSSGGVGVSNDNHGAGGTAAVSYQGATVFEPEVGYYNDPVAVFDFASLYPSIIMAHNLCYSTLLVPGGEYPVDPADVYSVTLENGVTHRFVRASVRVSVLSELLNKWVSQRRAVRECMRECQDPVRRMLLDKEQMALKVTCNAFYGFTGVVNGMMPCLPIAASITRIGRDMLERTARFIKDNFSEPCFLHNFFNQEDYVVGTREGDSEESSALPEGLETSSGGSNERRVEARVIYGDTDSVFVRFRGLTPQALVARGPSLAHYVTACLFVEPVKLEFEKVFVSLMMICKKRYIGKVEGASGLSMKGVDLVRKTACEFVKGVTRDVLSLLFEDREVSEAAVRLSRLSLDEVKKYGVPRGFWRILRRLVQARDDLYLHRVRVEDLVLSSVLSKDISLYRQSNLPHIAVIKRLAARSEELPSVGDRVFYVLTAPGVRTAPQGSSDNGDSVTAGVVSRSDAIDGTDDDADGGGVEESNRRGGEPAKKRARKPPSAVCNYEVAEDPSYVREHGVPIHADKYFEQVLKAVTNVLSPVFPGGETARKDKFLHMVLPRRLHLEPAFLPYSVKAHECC

[6] = biological target: T2, Vent® (exo-)/A488L DNA polymerase (Thermococcus litoralis, UniProt P30317, A488L/D141A/DEL1082-1471/DEL495-1032/E143A); assay type: biochemical; settings: Vent (exo-)/A488L vs Vent (exo-); FIG. 6
T2 construct: made in house
T2 sequence (P30317 other isoform, or with tags, fused parts or gaps D141A/E143A/A488L/DEL495-1032/DEL1082-1471): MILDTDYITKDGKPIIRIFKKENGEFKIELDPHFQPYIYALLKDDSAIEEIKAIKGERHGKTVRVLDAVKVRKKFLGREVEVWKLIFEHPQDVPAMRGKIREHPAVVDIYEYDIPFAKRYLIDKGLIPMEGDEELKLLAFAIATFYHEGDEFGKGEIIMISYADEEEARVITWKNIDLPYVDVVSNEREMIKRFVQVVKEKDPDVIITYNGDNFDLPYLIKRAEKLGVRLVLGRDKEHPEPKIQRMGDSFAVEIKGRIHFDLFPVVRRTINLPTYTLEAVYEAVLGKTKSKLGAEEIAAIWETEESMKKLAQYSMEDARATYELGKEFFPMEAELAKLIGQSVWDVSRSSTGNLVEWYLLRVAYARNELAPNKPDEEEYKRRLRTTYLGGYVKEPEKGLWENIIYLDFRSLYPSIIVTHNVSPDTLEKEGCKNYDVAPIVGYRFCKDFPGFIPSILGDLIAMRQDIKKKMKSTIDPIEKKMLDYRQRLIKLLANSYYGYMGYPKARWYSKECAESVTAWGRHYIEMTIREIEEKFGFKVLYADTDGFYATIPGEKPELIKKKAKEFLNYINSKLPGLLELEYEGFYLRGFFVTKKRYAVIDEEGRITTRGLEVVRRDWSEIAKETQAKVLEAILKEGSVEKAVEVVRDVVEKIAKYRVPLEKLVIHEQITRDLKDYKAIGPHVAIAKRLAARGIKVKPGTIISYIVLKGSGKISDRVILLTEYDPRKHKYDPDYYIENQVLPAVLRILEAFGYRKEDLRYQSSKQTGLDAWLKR

Nc1nc2c(ncn2[C@H]2CC[C@@H](COP(=O)(O)OP(=O)(O)OP(=O)(O)O)O2)c(=O)[nH]1 [ddGTP]
Preference for ddGTP over acyclo-GTP [1]: ~27 fold | Preference for insertion, ddGTP versus acyclo-GTP [2]: strong preference

Nc1nc2c(ncn2COCCOP(=O)(O)OP(=O)(O)OP(=O)(O)O)c(=O)[nH]1 [acyclo-GTP]
Preference for acyclo-GTP over ddGTP ([3]; 9°N (exo-)/A485L, FIG. 9): approximately 9 fold | Preference for insertion, acyclo-GTP versus ddGTP [4]: preference for insertion of acyclo-GTP over ddGTP | Preference for insertion, acyclo-GTP versus ddGTP [5]: preference for insertion of acyclo-GTP over ddGTP

Nc1ccn([C@H]2CC[C@@H](COP(=O)(O)OP(=O)(O)OP(=O)(O)O)O2)c(=O)n1 [ddCTP]
Enhancement of incorporation, variant compared to parental enzyme [6]: about 10 fold | Enhancement of incorporation, variant compared to parental enzyme ([3]; 9°N (exo-)/A485L vs 9°N (exo-), FIG. 6): about 10 fold
